The text below walks through data of patent US20110183336A1, “Method to Predict Responsiveness of Breast Cancer to Polyamine-Type Chemotherapy” (THE REGENTS OF THE UNIVERSITY OF CALIFORNIA, priority 2007, published 2011).

The structures appear in SMILES notation. Read-outs that look alike come from different tables or passages of the source. Bounds are passed on as bounds.

Experiment [1] has as its system HCC70 cells. The experiment is described as follows: Caspase Glo 3/7 assay (apoptosis). It counts as cell-based, human. The following applies: select sensitive cell lines except T47D (FIG. 4: HCC70); 0.3, 10 and 300 uM. The procedure: (§1) FIGS. 4A and 4B. Effect of CGC-11047 on HCC70 cells with respect to cell cycle and apoptosis. In FIG. 4A, cells were treated for 72 hours with 0, 0.3, 10, or 100 μM CGC-11047. Shown are percentage of the cell population is G0-G1, S, or G2-M phase of cell growth. In FIG. 4B, cells were treated for 42, 48, or 72 hours with 0.3, 10, or 300 μM CGC-11047. Shown is the caspase activity (apoptosis) of treated cells within each condition compared to untreated controls.
Caspase Glo assay: Apoptosis was measured using the Promega Caspase Glo 3/7 assay (Promega, Madison, Wis.). Lyophilized pellet was eluted in solvent to make working Caspase Glo reagent. After incubation of cells with CGC-11047 at specified concentrations for 24, 48, and 72 hours, 50 ul of Caspase Glo reagent was added to the wells. After an incubation time of 1 hour, luminescence was measured using a luminometer.
(§2) Select sensitive cell lines were treated with CGC-11047 at 0.3, 10 and 300 uM. BrdU incorporation was measured and cell cycle distribution was analyzed at 48 and 72 hrs. Apoptosis was measured using the Promega Caspase Glo 3/7 assay.

In experiment [2] the test system is HCC70 cells. Put plainly: BrdU incorporation and cell cycle distribution. It counts as cell-based, human. The note with it: select sensitive cell lines except T47D (FIG. 4: HCC70); 0.3, 10 and 300 uM; 48 and 72 hrs. The procedure: as §1
BrdU cell staining and labeling: After incubation of cells with CGC-11047 at specified concentrations for 24, 48, and 72 hours, cells were pulsed with a final BrdU concentration of 10 uM for 30 minutes. Cells were then fixed with −20° C. 70% ethanol overnight. Fixed cells were incubated with 2N HCl for 5-7 minutes to denature DNA. Cell were then rinsed with 1× PBS to neutralize HCl.
Cells were incubated with primary donkey anti-BrdU antibody (diluted 1:100 in 0.5% PBS-tween20) for 1 hour then rinsed well with 0.5% PBS-tween20. Cells were incubated with Hoechst 33642 (diluted 1:2000) and secondary anti-donkey antibody (diluted 1:500) for 45 minutes and washed well with PBS-tween. […]
as §2

The next experiment deals with UACC812. The experiment is described as follows: Cell growth inhibition assay (Cell Titer Glo). The note with it: UACC812, Luminal, 72 h. It counts as cell-based, human. The procedure:
(§3) Cell culture: Breast cell lines were obtained from the ATCC and from collections developed in the laboratories of Drs. Steve Ethier and Adi Gazdar.
(§4) Cell growth inhibition assay and data analysis: Cells were plated at proper density in 96-well plates such that they would remain in log growth at the end of assay time. The cells were allowed to attach overnight before being exposed to CGC-11047 for 72 h. Drugs were dissolved in water as 100 mM stock. For the dose response study, a set of 9 doses from 5×10^−3 to 1.3×10^−8 M (final concentration) in 1:5 serial dilution were added in triplicate wells. The final DMSO concentration in the treated well was 0.3% or less. The cell growth was determined using Cell Titer Glo (CTG) assay (CellTiter-Glo Luminescent Cell Viability Assay, Promega, Madison, Wis.), with slight modification form manufacturer's protocol, at day 0 (time when drug was added) and at day 3 of drug exposure. Briefly, CTG reagent was diluted with PBS (1:1, volume: volume) and the culture media was removed from the 96-well plate prior to adding 50 μl per well of the diluted CTG reagent. Luminescence from the assay was recorded using BIO-TEK FLx800.
(§5) Data calculations were made according to the method described by the NCI/NIH DTP Human Tumor Cell Line Screen Process (http://dtp.nci.nih.gov/branches/btb/ivclsp.html) and as described previously (Monks, A et al., JNCI 83:757-766, 1991). The percent growth curve is calculated as [(T−T0)/(C−T0)]×100, where T0 is the cell count at day 0, C is the vehicle control (e.g. 0.3% DMSO without drug) cell count at day 3, and T is the cell count at the test concentration. The GI50 and TGI value are determined as the drug concentration that results in a 50% and 0% growth at 72 h drug exposure. LC50 is calculated as [(T−T0)/T0]×100=−50, when T<T0.
A general note: In ATP-based viability assays light output follows the ATP content of the culture.

A further experiment relates to HCC38. Put plainly: Cell growth inhibition assay (Cell Titer Glo). It counts as cell-based, human. The following applies: HCC38, Basal B, 72 h. The procedure:
as §3, §4, §5

The subject of another experiment is LY2. The experiment is described as follows: Cell growth inhibition assay (Cell Titer Glo). Format: cell-based, human. The note with it: LY2, Luminal, 72 h. As to the method:
as §3, §4, §5

The subject of the next experiment is HCC3153. The experiment is described as follows: Cell growth inhibition assay (Cell Titer Glo). Format: cell-based, human. The note with it: HCC3153, Basal A, 72 h. As to the method:
as §3, §4, §5

The test system of a further experiment is AU565. Put plainly: Cell growth inhibition assay (Cell Titer Glo). It counts as cell-based, human. The following applies: AU565, Luminal, 72 h. As to the method:
as §3, §4, §5

The test system of a further experiment is SKBR3. The experiment is described as follows: Cell growth inhibition assay (Cell Titer Glo). The note with it: SKBR3, Luminal, 72 h. It counts as cell-based, human. As to the method:
as §3, §4, §5

Another experiment has as its system SUM52PE. The experiment is described as follows: Cell growth inhibition assay (Cell Titer Glo). It counts as cell-based, human. The following applies: Luminal, 72 h. The procedure:
as §3, §4, §5

The subject of the next experiment is BT483. Put plainly: Cell growth inhibition assay (Cell Titer Glo). It counts as cell-based, human. The following applies: BT483, Luminal, 72 h. The procedure: as §3, §4, §5
The test system of the next experiment is MDAMB453. The experiment is described as follows: Cell growth inhibition assay (Cell Titer Glo). Format: cell-based, human. The note with it: MDAMB453, Luminal, 72 h. The procedure: as §3, §4, §5
Another experiment has as its system HCC1143. The experiment is described as follows: Cell growth inhibition assay (Cell Titer Glo). Format: cell-based, human. The note with it: HCC1143, Basal A, 72 h. The procedure:
as §3, §4, §5

Experiment [3] deals with panel of 42 breast cancer cell lines and 6 non-cancerous breast cell lines. The experiment is described as follows: Cell growth inhibition assay, whole panel. Format: cell-based. The note with it: whole breast cell line panel, 72 h.
Excerpt: To better delineate the response of breast cancer cells to conformationally-restricted polyamines, we studied the anti-proliferation activity of CGC-11047 (SL-11047 or Compound 58 in Table 1) among the panel of 42 breast cancer cell lines and 6 non-cancerous breast cell lines (e.g., human mammary epithelial cells, HMEC) of known subtype (basal or luminal) with a plethora of genomic background mimicking the human breast tumors. Extensive genomic background of these cell lines have been reported by Neve et al. (2006).
as §3
Cell growth inhibition assay and data analysis: Cells were plated at proper density in 96-well plates such that they would remain in log growth at the end of assay time. The cells were allowed to attach overnight before being exposed to CGC-11047 for 72 h. Drugs were dissolved in water as 100 mM stock. […] The cell growth was determined using Cell Titer Glo (CTG) assay (CellTiter-Glo Luminescent Cell Viability Assay, Promega, Madison, Wis.), with slight modification form manufacturer's protocol, at day 0 (time when drug was added) and at day 3 of drug exposure. […] Luminescence from the assay was recorded using BIO-TEK FLx800. […]

Broadly, the GI50 is the concentration that inhibits growth by half. For orientation: TGI means the concentration giving total growth inhibition. Higher therefore signals less potent growth arrest. `CCNCCCNC/C=C\CNCCCNCC` [CGC-11047]: in the experiment with HCC70 cells [1], the “apoptosis (caspase 3/7 activity)” value was “very little apoptosis detected”. In addition, the “cell cycle distribution / BrdU incorporation” value in the experiment on HCC70 cells [2] was “growth inhibition is mainly caused by the delay in cell cycle, a G1 arrest”. Also, the GI50 was found to be 21 µM in the experiment with UACC812 (Homo sapiens, UACC-812); 40 µM in the experiment on HCC38 (Homo sapiens); 1300 µM with LY2 (Homo sapiens); 1.3 µM with HCC3153 (Homo sapiens); 40 µM in the experiment with AU565 (Homo sapiens); 5000 µM in the experiment on SKBR3 (Homo sapiens, SK-BR-3). The GI50 in the experiment with SUM52PE (Homo sapiens) was 10 µM; in the experiment with BT483 (Homo sapiens, BT-483), 900 µM; with MDAMB453 (Homo sapiens, MDA-MB-453), 500 µM; in the experiment with HCC1143 (Homo sapiens), 2 µM; in experiment [3] (Homo sapiens, read-out: median GI50), about 40 µM; in experiment [3] (units given in the value, read-out: GI50 range of the cell lines tested) it was 0.4 to 5000 µM. For the same molecule, the “TGI” value was 300 µM in the experiment on UACC812; 300 µM with HCC38; 3000 µM in the experiment on LY2; 8 µM with HCC3153; over 30 µM with AU565; over 5000 µM with SKBR3. Also, the total growth inhibition concentration (TGI) in the experiment on SUM52PE is 300 µM; in the experiment with BT483, 1300 µM; in the experiment on MDAMB453, over 500 µM; in the experiment on HCC1143, 320 µM.
